Laboratory results from paper PMC13070491, “Single-nucleus transcriptomics, pharmacokinetics, and pharmacodynamics of CDK4/6 and mTOR inhibition in a Phase 0/1 trial of recurrent high-grade glioma” (Neuro-Oncology, 2025).

System: GB126, GB239 and GB86 patient-derived cell lines
Experiment: In vitro single-cell RNA sequencing, analyses across the cell lines (pseudobulk differential gene expression, GSEA, non-cycling cells)
Type: cell-based, human
Settings: pseudobulk, ribociclib versus control (DMSO)
Description: Patient-derived glioma stem cell lines (GSCs; GB126, GB86, and GB239) were established from resected GBM tumor tissue. Cell lines were genetically profiled for mutations and copy number aberrations using the IvySeq custom gene panel. […] GB239 was derived from a tumor sample included in this Phase 0 trial (tumor sample: 100-0039). All human GSCs were cultured as described previously.[12]
Following the fifth day of drug exposure, cells were harvested, cryopreserved to be processed at a later point, or immediately processed for single-cell RNA sequencing (10x Genomics, 3’ version 3). The single-cell RNA sequencing data were then processed via cellranger count and Seurat. Briefly, cells were filtered out based on the following criteria: minimum number of genes detected >500 and <10 000 with a maximum percentage of mitochondrial genes set to 10%. Statistical assessment was made between the malignant proportions of each cell state using a 2-sided paired t-test.
Descriptive statistics of the clinical data are included in Table 1. Comparisons between groups were conducted using a 2-sided or paired 2-sided t-test, where indicated. P < .05 was considered significant. Multiple hypothesis test corrections (ie, false discovery rate correction) were applied for snRNAseq pseudobulk differential expression analysis.

Compound: CN(C)C(=O)c1cc2cnc(Nc3ccc(N4CCNCC4)cn3)nc2n1C1CCCC1 [ribo]
- log2FoldChange RTP4 (gene RTP4): 2.131
- log2FoldChange (gene SAC3D1): -1.1095
- log2FoldChange SEC16B (gene SEC16B): 1.622
- log2FoldChange (gene SGO1): -1.732
- log2FoldChange (gene SHISA8): -1.822
- log2FoldChange (gene SLC2A4RG): -1.127
- log2FoldChange SNCG (gene SNCG): 1.82
- log2FoldChange (gene SNRPB): -1.13
- log2FoldChange SP6 (gene SP6): 1.619
- log2FoldChange SPTBN5 (gene SPTBN5): 1.5798
- log2FoldChange (gene STARD8): -1.058
- log2FoldChange (gene TCF19): -1.684
- log2FoldChange (gene TEKT2): -1.108
- log2FoldChange TEKT4 (gene TEKT4): 1.53
- log2FoldChange TEX29 (gene TEX29): 1.88
- log2FoldChange TLR8 (gene TLR8): 1.7124
- log2FoldChange TM4SF4 (gene TM4SF4): 1.515
- log2FoldChange TMEM88 (gene TMEM88): 1.467
- log2FoldChange (gene TMPO): -1.685
- log2FoldChange (gene TNFRSF13C): -1.634
- log2FoldChange (gene TRPC3): -1.603
- log2FoldChange (gene TUBA1B): -1.731
- log2FoldChange TUSC7 (gene TUSC7): 1.959
- log2FoldChange (gene TYMSOS): -1.808
- log2FoldChange (gene UBE2S): -1.812
- log2FoldChange (gene UHRF1): -1.689
- log2FoldChange (gene WDR62): -1.744
- log2FoldChange (gene XRCC2): -1.646
- log2FoldChange ZCCHC23 (gene ZCCHC23): 1.565
- log2FoldChange, feature AC004835.1: -1.938
- log2FoldChange, feature AC011139.1: -2.033
- log2FoldChange, feature AC020658.4: -2.697
- log2FoldChange, feature AC027277.1: -2.37
- log2FoldChange, feature AC027627.1: -3.761
- log2FoldChange, feature AC079753.2: -3.036
- log2FoldChange, feature AC084757.2: -2.199
- log2FoldChange, feature AC087721.1: -2.244
- log2FoldChange, feature AC097534.1: -1.917
- log2FoldChange, feature AC099845.1: -2.325
- log2FoldChange, feature AF233439.1: -2.426
- log2FoldChange, feature AL023803.2: -2.112
- log2FoldChange, feature AL136528.1: -3.4157
- log2FoldChange, feature AL606468.1: -2.361
- log2FoldChange, feature AL606500.1: -4.456
- log2FoldChange, feature ANLN: -2.17
- log2FoldChange, feature APOLD1: -2.2948
- log2FoldChange, feature ARHGEF16: -2.5327
- log2FoldChange, feature ARHGEF39: -2.785
- log2FoldChange, feature ASF1B: -2.413
- log2FoldChange, feature ASPM: -2.923
- log2FoldChange, feature AURKA: -1.946
- log2FoldChange, feature AURKB: -5.69
- log2FoldChange, feature BIRC5: -4.128
- log2FoldChange, feature BUB1B: -2.255
- log2FoldChange, feature C1QL1: -2.176
- log2FoldChange, feature CCNA1: -1.944
- log2FoldChange, feature CCNA2: -3.66
- log2FoldChange, feature CCNB1: -2.309
- log2FoldChange, feature CCNB2: -2.58
- log2FoldChange, feature CDC20: -2.615
- log2FoldChange, feature CDC25C: -2.251
- log2FoldChange, feature CDC45: -1.967
- log2FoldChange, feature CDCA2: -2.288
- log2FoldChange, feature CDCA3: -4.424
- log2FoldChange, feature CDCA5: -2.481
- log2FoldChange, feature CDCA8: -2.683
- log2FoldChange, feature CDK1: -3.117
- log2FoldChange, feature CDT1: -2.6933
- log2FoldChange, feature CENPE: -2.304
- log2FoldChange, feature CENPF: -2.646
- log2FoldChange, feature CENPM: -2.763
- log2FoldChange, feature CENPU: -1.962
- log2FoldChange, feature CEP55: -2.857
- log2FoldChange, feature CIT: -1.908
- log2FoldChange, feature CKAP2L: -3.667
- log2FoldChange, feature COL2A1: -2.114
- log2FoldChange, feature CSRP3-AS1: -2.408
- log2FoldChange, feature DEPDC1: -2.44
- log2FoldChange, feature DHRS2: -3.141
- log2FoldChange, feature DIAPH3: -2.737
- log2FoldChange, feature DIAPH3-AS1: -2.318
- log2FoldChange, feature DLGAP5: -4.307
- log2FoldChange, feature DUSP9: -1.8912
- log2FoldChange, feature E2F1: -2.143
- log2FoldChange, feature E2F2: -2.717
- log2FoldChange, feature E2F7: -1.962
- log2FoldChange, feature E2F8: -4.471
- log2FoldChange, feature EMILIN3: -2.469
- log2FoldChange, feature ESCO2: -3.335
- log2FoldChange, feature ESPL1: -2.787
- log2FoldChange, feature EXO1: -2.588
- log2FoldChange, feature FAM72C: -1.941
- log2FoldChange, feature FAM83D: -2.106
- log2FoldChange, feature FAM111B: -3.61
- log2FoldChange, feature FBLN7: -2.095
- log2FoldChange, feature FBXO5: -2.254
- log2FoldChange, feature FOXM1: -3.356
- log2FoldChange, feature FOXN4: -2.7907
- log2FoldChange, feature GTSE1: -3.691
- log2FoldChange, feature H2AFX: -1.9706
- log2FoldChange, feature HIST1H1B: -4.86
- log2FoldChange, feature HIST1H1D: -3.125
- log2FoldChange, feature HIST1H1E: -2.149
- log2FoldChange, feature HIST1H2AB: -3.666
- log2FoldChange, feature HIST1H2AD: -2.176
- log2FoldChange, feature HIST1H2AG: -3.09
- log2FoldChange, feature HIST1H2AH: -3.181
- log2FoldChange, feature HIST1H2AI: -3.193
- log2FoldChange, feature HIST1H2AJ: -3.606
- log2FoldChange, feature HIST1H2AK: -2.038
- log2FoldChange, feature HIST1H2AL: -4.067
- log2FoldChange, feature HIST1H2AM: -2.962
- log2FoldChange, feature HIST1H2BB: -4.24
- log2FoldChange, feature HIST1H2BF: -2.791
- log2FoldChange, feature HIST1H2BH: -2.674
- log2FoldChange, feature HIST1H2BI: -3.141
- log2FoldChange, feature HIST1H2BK: -2.1572
- log2FoldChange, feature HIST1H2BL: -3.055
- log2FoldChange, feature HIST1H2BM: -3.899
- log2FoldChange, feature HIST1H2BO: -4.102
- log2FoldChange, feature HIST1H3A: -2.494
- log2FoldChange, feature HIST1H3B: -4.012
- log2FoldChange, feature HIST1H3C: -3.43
- log2FoldChange, feature HIST1H3D: -3.164
- log2FoldChange, feature HIST1H3F: -4.011
- log2FoldChange, feature HIST1H3G: -5.89
- log2FoldChange, feature HIST1H3I: -2.396
- log2FoldChange, feature HIST1H4A: -2.4627
- log2FoldChange, feature HIST1H4B: -3.363
- log2FoldChange, feature HIST1H4C: -2.564
- log2FoldChange, feature HIST1H4D: -2.3219
- log2FoldChange, feature HIST1H4L: -3.364
- log2FoldChange, feature HIST2H2AA4: -2.973
- log2FoldChange, feature HIST2H2AB: -2.432
- log2FoldChange, feature HIST2H2AC: -2.094
- log2FoldChange, feature HIST2H3D: -3.112
- log2FoldChange, feature HIST2H4B: -3.0547
- log2FoldChange, feature HJURP: -3.812
- log2FoldChange, feature HMGB2: -3.4975
- log2FoldChange, feature HMGN2: -1.988
- log2FoldChange, feature HMMR: -2.398
- log2FoldChange, feature HMMR-AS1: -1.986
- log2FoldChange, feature IQGAP3: -3.825
- log2FoldChange, feature KIF2C: -3.46
- log2FoldChange, feature KIF4A: -3.264
- log2FoldChange, feature KIF11: -2.445
- log2FoldChange, feature KIF14: -1.93
- log2FoldChange, feature KIF15: -2.295
- log2FoldChange, feature KIF18B: -3.458
- log2FoldChange, feature KIF20A: -5.621
- log2FoldChange, feature KIF23: -2.582
- log2FoldChange, feature KIFC1: -3.063
- log2FoldChange, feature KNL1: -2.569
- log2FoldChange, feature LHX2: -2.082
- log2FoldChange, feature LINC00243: -2.438
- log2FoldChange, feature LINC01647: -5.161
- log2FoldChange, feature LINC01775: -2.182
- log2FoldChange, feature LMNB1: -1.981
- log2FoldChange, feature MCM10: -2.2
- log2FoldChange, feature MELK: -2.093
- log2FoldChange, feature MIR924HG: -2.274
- log2FoldChange, feature MKI67: -6.243
- log2FoldChange, feature MUC22: -3.844
- log2FoldChange, feature MXD3: -2.803
- log2FoldChange, feature MYB: -2.501
- log2FoldChange, feature MYBL2: -3.875
- log2FoldChange, feature NCAPG: -2.9227
- log2FoldChange, feature NCAPH: -2.746
- log2FoldChange, feature NDC80: -2.667
- log2FoldChange, feature NEIL3: -3.743
- log2FoldChange, feature NEK2: -3.576
- log2FoldChange, feature NEURL1B: -1.929
- log2FoldChange, feature NMU: -2.574
- log2FoldChange, feature NRM: -1.8865
- log2FoldChange, feature NRTN: -3.311
- log2FoldChange, feature NT5DC4: -2.34
- log2FoldChange, feature NUSAP1: -3.196
- log2FoldChange, feature NXPH2: -2.198
- log2FoldChange, feature PAK6: -1.969
- log2FoldChange, feature PAPOLB: -2.347
- log2FoldChange, feature PBK: -3.281
- log2FoldChange, feature PCLAF: -3.5822
- log2FoldChange, feature PCNA: -1.969
- log2FoldChange, feature PIF1: -3.124
- log2FoldChange, feature PIMREG: -3.009
- log2FoldChange, feature PKMYT1: -2.904
- log2FoldChange, feature PLK1: -3.608
- log2FoldChange, feature PRC1: -2.44
- log2FoldChange, feature PRIM1: -2.274
- log2FoldChange, feature PTTG1: -2.767
- log2FoldChange, feature RAD51AP1: -1.918
- log2FoldChange, feature RAD54L: -1.967
- log2FoldChange, feature RPP25: -1.919
- log2FoldChange, feature RRM2: -5.156
- log2FoldChange, feature SAPCD2: -1.989
- log2FoldChange, feature SDC1: -2.261
- log2FoldChange, feature SHCBP1: -2.035
- log2FoldChange, feature SKA1: -3.026
- log2FoldChange, feature SLC7A3: -2.68
- log2FoldChange, feature SPAG5: -2.024
- log2FoldChange, feature SPC24: -2.603
- log2FoldChange, feature SPC25: -3.836
- log2FoldChange, feature TACC3: -2.439
- log2FoldChange, feature TICRR: -2.318
- log2FoldChange, feature TK1: -2.815
- log2FoldChange, feature TMPO-AS1: -2.127
- log2FoldChange, feature TMSB15A: -2.211
- log2FoldChange, feature TOP2A: -4.082
- log2FoldChange, feature TP73: -3.442
- log2FoldChange, feature TPX2: -2.42
- log2FoldChange, feature TROAP: -3.212
- log2FoldChange, feature TTK: -1.967
- log2FoldChange, feature TYMS: -2.957
- log2FoldChange, feature UBE2C: -3.754
- log2FoldChange, feature UBE2T: -1.955
- log2FoldChange, feature WDR76: -2.235
- log2FoldChange, feature ZWINT: -1.901
